The record followed here is ChEMBL document CHEMBL1122304, “Synthesis and antiallergy activity of 5-oxo-5H-thiazolo[2,3-b]quinazolinecarboxylic acids” (1983).

One may read the inhibition in vivo as the share of the control response that was lost under treatment.

A value given as a limit tells only on which side of the number the result lay.

Common to all, as to assay type: functional
Experiment [1] relates to Rattus norvegicus. In words: Antiallergic activity in the rat passive cutaneous anaphylaxis (PCA) test upon peroral administration. To be noted: po, read-out: ID50 (the source's name).
Experiment [2] relates to Rattus norvegicus. Nature of the experiment: Antiallergic activity in the rat passive cutaneous anaphylaxis (PCA) test at 32 mg/kg upon peroral administration. The settings on record: route oral.
The test system of experiment [3] is Rattus norvegicus. Nature of the experiment: Antiallergic activity in the rat passive cutaneous anaphylaxis (PCA) test at 16 mg/kg upon intraperitoneal administration. The settings on record: ip.
Experiment [4] concerns Rattus norvegicus. Nature of the experiment: Antiallergic activity in the rat passive cutaneous anaphylaxis (PCA) test upon intraperitoneal administration of 16 mg/kg of the compound. The settings on record: ip.
Experiment [5] deals with Rattus norvegicus. Nature of the experiment: Antiallergic activity in the rat passive cutaneous anaphylaxis (PCA) test at 32 mg/kg upon peroral administration after 10-minute pretreatment time. To be noted: route oral.
The subject of experiment [6] is Rattus norvegicus. In words: Antiallergic activity in the rat passive cutaneous anaphylaxis (PCA) test upon peroral administration; (range of 0.89-6.85). The settings on record: po, read-out: ID50 (the source's name).
In experiment [7] the test system is Rattus norvegicus. In words: Antiallergic activity in the rat passive cutaneous anaphylaxis (PCA) test at 32 mg/kg upon peroral administration with a 10-minute pretreatment time. To be noted: route oral.
For experiment [8], the system named is Rattus norvegicus. In words: Antiallergic activity in the rat passive cutaneous anaphylaxis (PCA) test upon peroral administration; (range = 0.98-4.02). The settings on record: po, read-out: ID50 (the source's name).
Experiment [9] deals with Rattus norvegicus. In words: Antiallergic activity in the rat passive cutaneous anaphylaxis (PCA) test upon peroral administration;(range = 0.07-0.23). To be noted: po, read-out: ID50 (the source's name).
Experiment [10] has as its system Rattus norvegicus. In words: Antiallergic activity in the rat passive cutaneous anaphylaxis (PCA) test upon peroral administration; (range = 0.08-0.18). The settings on record: po, read-out: ID50 (the source's name).
Experiment [11] concerns Rattus norvegicus. Nature of the experiment: Antiallergic activity in the rat passive cutaneous anaphylaxis (PCA) test upon peroral administration; (range = 0.58-1.91). To be noted: po, read-out: ID50 (the source's name).
Experiment [12] deals with Rattus norvegicus. Nature of the experiment: Antiallergic activity in the rat passive cutaneous anaphylaxis (PCA) test upon peroral administration; (range = 0.04-0.14). To be noted: po, read-out: ID50 (the source's name).
The test system of experiment [13] is Rattus norvegicus. In words: Antiallergic activity in the rat passive cutaneous anaphylaxis (PCA) test upon peroral administration; (range = 0.18-0.61). To be noted: po, read-out: ID50 (the source's name).
The subject of experiment [14] is Rattus norvegicus. Nature of the experiment: Antiallergic activity in the rat passive cutaneous anaphylaxis (PCA) test upon peroral administration; (range = 2.14-29.01). To be noted: po, read-out: ID50 (the source's name).
Experiment [15] has as its system Rattus norvegicus. In words: Antiallergic activity in the rat passive cutaneous anaphylaxis (PCA) test upon intraperitoneal administration of 8 mg/kg of the compound. To be noted: ip.

For the molecule `Cc1cn2c(=O)c3cc(C(=O)O)ccc3nc2s1`, the ED50 in the experiment on Rattus norvegicus [1] is > 10 mg/kg. Further, in the experiment with Rattus norvegicus [2], the inhibition in vivo at 32 mg/kg turned out to be 79%.
Regarding `CC(C)c1cc2c(=O)n3cc(C(=O)O)ccc3nc2s1`, in the experiment with Rattus norvegicus [3], testing at 16 mg/kg gave an inhibition in vivo of 89%. Moreover, the inhibition in vivo at 32 mg/kg in the experiment on Rattus norvegicus [2] amounted to 54%.
Turning to `CC(C)c1cc(C(C)C)c2nc3sc(C(=O)O)cn3c(=O)c2c1`, the ED50 in the experiment on Rattus norvegicus [1] is > 10 mg/kg. The molecule further displayed an inhibition in vivo at 16 mg/kg with Rattus norvegicus [3] of 100%. 32 mg/kg produced 19% inhibition in vivo with Rattus norvegicus [2].
On to `CC(C)Cc1ccc2nc3sc(C(=O)O)cn3c(=O)c2c1`, for which, in the experiment on Rattus norvegicus [4], testing at 16 mg/kg gave an inhibition in vivo of 62%. Also, in the experiment on Rattus norvegicus [5], the inhibition in vivo at 32 mg/kg came out at 78%. Further, the ED50 in the experiment on Rattus norvegicus [6] was found to be 2.12 mg/kg.
As for `C[S+]([O-])c1ccc2nc3sc(C(=O)O)cn3c(=O)c2c1` (stereo unspecified), in the experiment with Rattus norvegicus [4], the inhibition in vivo at 16 mg/kg stood at 55%. Besides, the inhibition in vivo at 32 mg/kg in the experiment with Rattus norvegicus [7] was determined as 67%. For the same molecule, in the experiment with Rattus norvegicus [8], the ED50 worked out at 1.82 mg/kg.
In the case of `CSc1ccc2nc3sc(C(=O)O)cn3c(=O)c2c1`, the ED50 with Rattus norvegicus [9] stood at 0.12 mg/kg. Further, the inhibition in vivo at 32 mg/kg in the experiment on Rattus norvegicus [2] is 87%.
The molecule `CC(C)c1cn2c(=O)c3cc(C(=O)O)ccc3nc2s1` showed an inhibition in vivo at 16 mg/kg in the experiment on Rattus norvegicus [4] of 100%. The ED50 in the experiment with Rattus norvegicus [10] stood at 0.11 mg/kg. For the same molecule, the inhibition in vivo at 32 mg/kg with Rattus norvegicus [2] was 100%.
The molecule `CCC(C)c1ccc2nc3sc(C(=O)O)cn3c(=O)c2c1` (stereo unspecified) registered an inhibition in vivo at 16 mg/kg in the experiment with Rattus norvegicus [4] of 59%. Besides, the inhibition in vivo at 32 mg/kg with Rattus norvegicus [5] is 64%. Further, the ED50 in the experiment on Rattus norvegicus [11] is 1.01 mg/kg.
As for `COc1cc2nc3sc(C(=O)O)cn3c(=O)c2cc1OC`, the inhibition in vivo at 16 mg/kg with Rattus norvegicus [4] was found to be 89%.
On the same count and under the same terms, the value for `O=C(O)c1cn2c(=O)c3ccccc3nc2s1` was 80%.
For `O=C(O)c1ccc2nc3sccn3c(=O)c2c1`, in the experiment on Rattus norvegicus [4], at 16 mg/kg the inhibition in vivo was 62%. Besides, in the experiment with Rattus norvegicus [1], the ED50 is > 10 mg/kg. Also, the inhibition in vivo at 32 mg/kg with Rattus norvegicus [2] is 66%.
Molecule `COc1ccc2nc3sc(C(=O)O)cn3c(=O)c2c1` registered an inhibition in vivo at 16 mg/kg in the experiment with Rattus norvegicus [4] of 100%. In addition, the ED50 in the experiment with Rattus norvegicus [12] was determined as 0.07 mg/kg. Besides, at 32 mg/kg the inhibition in vivo in the experiment with Rattus norvegicus [2] was 78%.
For `CC(C)c1ccc2nc3sc(C(=O)O)cn3c(=O)c2c1`, the ED50 in the experiment with Rattus norvegicus [13] was found to be 0.33 mg/kg. Besides, the inhibition in vivo at 16 mg/kg with Rattus norvegicus [3] was found to be 89%. The molecule further came in with an inhibition in vivo at 32 mg/kg in the experiment on Rattus norvegicus [2] of 86%.
As for `O=C(O)c1cn2c(=O)c3cc(C4CC4)ccc3nc2s1`, the ED50 with Rattus norvegicus [14] was 6.02 mg/kg. The molecule further had an inhibition in vivo at 32 mg/kg with Rattus norvegicus [2] of 100%.
Take `O=C(O)c1cc(=O)c2c(OCC(O)COc3cccc4oc(C(=O)O)cc(=O)c34)cccc2o1` [CROMOLYN SODIUM]: at 8 mg/kg the inhibition in vivo with Rattus norvegicus [15] was 46%. Further, the inhibition in vivo at 32 mg/kg with Rattus norvegicus [5] is 18%.
